Measurements from US20100267561A1, “HERBICIDAL PYRIDAZINONE DERIVATIVES” (priority 2007, published 2010).

Key:
Assay type in all cases: in vivo
[1] = system: catchweed bedstraw (Galium aparine); assay: Test B pre-/postemergence plant response; conditions: Preemergence; for Galium plant response rating: scale 0 to 100
Method in brief: (§1)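 Visual scoring from 0 (no effect) to 100 (complete control) against untreated controls was done 13 to 15 days after greenhouse treatment. Chemicals were formulated in a surfactant-containing non-phytotoxic solvent and applied to soil preemergence or to 1- to 4-leaf (2-18 cm) plants postemergence.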

[2] = system: giant foxtail (Setaria faberii); assay: Test B pre-/postemergence plant response
Method in brief: as §1

[3] = system: lambsquarters (Chenopodium album); assay: Test B pre-/postemergence plant response; conditions: for Lambsquarters plant response rating: postemergence, 0-100 scale; for Plant response rating, Lambsquarters: Postemergence
Method in brief: as §1

kochia (Kochia scoparia) = assay: Test B pre-/postemergence plant response; conditions: for Kochia plant response rating: postemergence, 0-100 scale; for Plant response rating, Kochia: Postemergence
Method in brief: as §1

[4] = system: johnsongrass (Sorghum halepense); assay: Test B pre-/postemergence plant response
Method in brief: as §1

soybean (Glycine max) = assay: Test B pre-/postemergence plant response
Method in brief: as §1

[5] = system: pigweed (Amaranthus retroflexus); assay: Test B pre-/postemergence plant response
Method in brief: as §1

[6] = system: Italian ryegrass (Lolium multiflorum); assay: Test B pre-/postemergence plant response
Method in brief: as §1

[7] = system: large crabgrass (Digitaria sanguinalis); assay: Test B pre-/postemergence plant response
Method in brief: as §1

[8] = system: goosegrass (Eleusine indica); assay: Test B pre-/postemergence plant response
Method in brief: as §1

[9] = system: bermudagrass (Cynodon dactylon); assay: Test B pre-/postemergence plant response; conditions: for Bermudagrass plant response rating: 8 g ai/ha
Method in brief: as §1

[10] = system: velvetleaf (Abutilon theophrasti); assay: Test B pre-/postemergence plant response
Method in brief: as §1

[11] = system: morningglory (Ipomoea coccinea); assay: Test B pre-/postemergence plant response
Method in brief: as §1

rice (Oryza sativa) = assay: Test B flooded paddy test plant response
Method in brief: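 Rice, umbrella sedge, ducksalad and barnyardgrass at 2-leaf stage; pots flooded to 3 cm, compounds applied into paddy water, depth held throughout. Greenhouse 13 to 15 days, then visual rating vs untreated controls on 0–100 scale (0 no effect, 100 complete control); dash means no test result.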

[12] = 8 g ai/ha, postemergence, 0-100 scale
[13] = Postemergence, 16 g ai/ha, scale 0 to 100
[14] = Postemergence, 31 g ai/ha, scale 0 to 100
[15] = Postemergence, 62 g ai/ha, scale 0 to 100, 0 no effect, 100 complete control
[16] = Preemergence, 31 g ai/ha, scale 0 to 100 (0 no effect, 100 complete control)
[17] = Preemergence, 62 g ai/ha, 0 to 100 scale, 0 no effect, 100 complete control
[18] = Preemergence, 8 g ai/ha, scale 0 to 100
[19] = Preemergence, 16 g ai/ha, scale 0 to 100
[20] = 62 g ai/ha, scale 0 to 100, 0 no effect, 100 complete control
[21] = 16 g ai/ha, postemergence, 0-100 scale

CCc1cc(-c2ccc(C(F)(F)F)cc2)nn1-c1c(O)c(OC)nn(C)c1=O [Compound 66]
100: Plant response rating, Foxtail, Giant [2, 14] | Plant response rating, Foxtail, Giant [2, 15] | Johnsongrass plant response rating [4, 21] | Plant response rating, Johnsongrass [4, 14] | Plant response rating, Johnsongrass [4, 15] | Plant response rating, Johnsongrass [4, 17] | Ryegrass, Italian plant response rating [6, 21] | Plant response rating, Ryegrass, Italian [6, 14] | Plant response rating, Ryegrass, Italian [6, 15] | Plant response rating, Ryegrass, Italian [6, 16] | Plant response rating, Ryegrass, Italian [6, 17] | Ryegrass, Italian plant response rating [6, 18] | Ryegrass, Italian plant response rating [6, 19] | Plant response rating, Crabgrass, Large [7, 15] | Plant response rating, Bermudagrass [9, 14] | Plant response rating, Bermudagrass [9, 15] | Plant response rating, Bermudagrass [9, 17]
98: Plant response rating, Foxtail, Giant [2, 13] | Plant response rating, Johnsongrass [4, 16] | Plant response rating, Crabgrass, Large [7, 14] | Plant response rating, Goosegrass [8, 15] | Plant response rating, Bermudagrass [9, 13] | Plant response rating, Bermudagrass [9, 16]
0: Plant response rating, Galium ([1]; 31 g ai/ha, scale 0 to 100 (0 no effect, 100 complete control)) | Plant response rating, Galium ([1]; 62 g ai/ha, 0 to 100 scale, 0 no effect, 100 complete control) | Galium plant response rating ([1]; 8 g ai/ha) | Galium plant response rating ([1]; 16 g ai/ha) | Foxtail, Giant plant response rating [2, 18] | Lambsquarters plant response rating ([3]; 8 g ai/ha) | Lambsquarters plant response rating ([3]; 16 g ai/ha) | Plant response rating, Lambsquarters ([3]; 31 g ai/ha, scale 0 to 100) | Plant response rating, Lambsquarters [3, 20] | Kochia plant response rating (kochia (Kochia scoparia); 8 g ai/ha) | Kochia plant response rating (kochia (Kochia scoparia); 16 g ai/ha) | Plant response rating, Kochia (kochia (Kochia scoparia); 31 g ai/ha, scale 0 to 100) | Plant response rating, Kochia (kochia (Kochia scoparia); [20]) | Soybean plant response rating (soybean (Glycine max); [12]) | Soybean plant response rating (soybean (Glycine max); [21]) | Plant response rating, Soybean (soybean (Glycine max); [14]) | Plant response rating, Soybean (soybean (Glycine max); [15]) | Plant response rating, Soybean (soybean (Glycine max); [16]) | Plant response rating, Soybean (soybean (Glycine max); [17]) | Soybean plant response rating (soybean (Glycine max); [18]) | Soybean plant response rating (soybean (Glycine max); [19]) | Pigweed plant response rating [5, 12] | Pigweed plant response rating [5, 21] | Plant response rating, Pigweed [5, 14] | Plant response rating, Pigweed [5, 15] | Plant response rating, Pigweed [5, 16] | Pigweed plant response rating [5, 18] | Pigweed plant response rating [5, 19] | Crabgrass, Large plant response rating [7, 18] | Crabgrass, Large plant response rating [7, 19] | Goosegrass plant response rating [8, 18] | Goosegrass plant response rating [8, 19] | Bermudagrass plant response rating ([9]; Preemergence, scale 0 to 100 (0 no effect, 100 complete control)) | Velvetleaf plant response rating [10, 12] | Velvetleaf plant response rating [10, 21] | Plant response rating, Velvetleaf [10, 14] | Plant response rating, Velvetleaf [10, 15] | Plant response rating, Velvetleaf [10, 16] | Plant response rating, Velvetleaf [10, 17] | Velvetleaf plant response rating [10, 18] | Velvetleaf plant response rating [10, 19] | Morningglory plant response rating [11, 12] | Morningglory plant response rating [11, 21] | Plant response rating, Morningglory [11, 14] | Plant response rating, Morningglory [11, 15] | Plant response rating, Morningglory [11, 16] | Plant response rating, Morningglory [11, 17] | Morningglory plant response rating [11, 18] | Morningglory plant response rating [11, 19] | Plant response rating, Rice (rice (Oryza sativa); Flood (flooded paddy test), 62 g ai/ha, scale 0 to 100, 0 no effect, 100 complete control) | Plant response rating, Rice (rice (Oryza sativa); Flood (flooded paddy test), 125 g ai/ha, scale 0 to 100, 0 no effect, 100 complete control) | Plant response rating, Rice (rice (Oryza sativa); Flood, 31 g ai/ha, scale 0 to 100)
80: Plant response rating, Crabgrass, Large [7, 17]
60: Ryegrass, Italian plant response rating [6, 12] | Plant response rating, Crabgrass, Large [7, 16]
30: Plant response rating, Rice (rice (Oryza sativa); Flood (flooded paddy test), 250 g ai/ha, scale 0 to 100, 0 no effect, 100 complete control)
70: Johnsongrass plant response rating [4, 18] | Crabgrass, Large plant response rating [7, 12] | Goosegrass plant response rating [8, 12] | Plant response rating, Goosegrass [8, 17]
75: Johnsongrass plant response rating [4, 12] | Goosegrass plant response rating [8, 21]
20: Bermudagrass plant response rating ([9]; postemergence, 0-100 scale)
85: Foxtail, Giant plant response rating [2, 12] | Plant response rating, Crabgrass, Large [7, 13] | Plant response rating, Goosegrass [8, 14] | Plant response rating, Bermudagrass ([9]; Preemergence, 16 g ai/ha, scale 0 to 100 (0 no effect, 100 complete control))
95: Plant response rating, Foxtail, Giant [2, 16] | Plant response rating, Foxtail, Giant [2, 17] | Johnsongrass plant response rating [4, 19] | Plant response rating, Pigweed [5, 17]
45: Foxtail, Giant plant response rating [2, 19]
25: Plant response rating, Goosegrass [8, 16]
